Data set [1] can be described thus: Stability (half-life) in human serum, intact peptide by UPLC-MS. In kind it is in vitro ADME. Particulars: human serum (50% in FIG. 5; 10 and 50% in PBS), 0.1 mM peptide. As for the experimental part: FIG. 5: Stability of JNK inhibitors with SEQ ID NOs: 172, 196 and 197 in 50% human serum. The JNK inhibitor with SEQ ID NO: 196 was totally degraded into amino acids residues within 6 hours (A). The JNK inhibitor with SEQ ID NO: 172 was completely degraded only after 14 days (B). The JNK inhibitor with SEQ ID NO: 197 was stable at least up to 30 days (B).
The JNK inhibitors with the sequence of SEQ ID NOs: 196, 197, and 172 (0.1 mM final concentration) were digested in human serum (10 and 50% in PBS 1×). The experiment was performed as described by Tugyi et al. (Proc Natl Acad Sci USA, 2005, 413-418). The remaining intact peptide was quantified by UPLC-MS. Stability was assessed for SEQ ID NOs: 196, 197, and 172 identically but in two separate assays. While the JNK inhibitor with SEQ ID NO: 196 was totally degraded into amino acids residues within 6 hours, the JNK inhibitor with SEQ ID NO: 172 was completely degraded only after 14 days. The JNK inhibitor with SEQ ID NO: 197 was still stable after 30 days.

For data set [2], the target named is hJNK1 (Homo sapiens, UniProt P45983). Kind of data set: hJNK1 | IC50. The text has this: Table printed on a drawing sheet, Fig. 2 Head of the field: hJNK1 | IC50 The patent's description of the figure: FIG. 2: Table illustrating the inhibitory efficacy of several JNK inhibitors (SEQ ID NOs: 193, 2, 3, 5, 6, and 7) according to the present invention. Given are the IC50 values in the nM range, the respective standard error of the mean and the number of experiments performed (n). First copying reader's note: The sheet prints no unit for IC50 and SEM; decimal commas are used and lower-case residue letters are as printed. Where the first naming reader finds the target: head: hJNK1

In data set [3] the target is hJNK2 (Homo sapiens, UniProt P45984). Briefly: hJNK2 | IC50. From the text:
Table printed on a drawing sheet, Fig. 2 Head of the field: hJNK2 | IC50 The patent's description of the figure: FIG. 2: Table illustrating the inhibitory efficacy of several JNK inhibitors (SEQ ID NOs: 193, 2, 3, 5, 6, and 7) according to the present invention. Given are the IC50 values in the nM range, the respective standard error of the mean and the number of experiments performed (n). First copying reader's note: The sheet prints no unit for IC50 and SEM; decimal commas are used and lower-case residue letters are as printed. Where the first naming reader finds the target: head: hJNK2

Data set [4] concerns the target hJNK3 (Homo sapiens, UniProt P53779). Briefly: hJNK3 | IC50. The text has this: Table printed on a drawing sheet, Fig. 2 Head of the field: hJNK3 | IC50 The patent's description of the figure: FIG. 2: Table illustrating the inhibitory efficacy of several JNK inhibitors (SEQ ID NOs: 193, 2, 3, 5, 6, and 7) according to the present invention. Given are the IC50 values in the nM range, the respective standard error of the mean and the number of experiments performed (n). First copying reader's note: The sheet prints no unit for IC50 and SEM; decimal commas are used and lower-case residue letters are as printed. Where the first naming reader finds the target: head: hJNK3

For data set [5], the system named is endotoxins-induced uveitis albino rat model. Briefly: Endotoxins induced uveitis (EIU), single intravenous injection, clinical scoring 24 hours after LPS. The format is in vivo. Also noted: key to clinical score of ocular inflammation, mean score (mean±SEM) / clinical score of ocular inflammation, median: ocular inflammation score per eye, 0 = none to 4 = intense (+1 fibrin). To be noted: 20 μg/eye sub-conjunctival, 24 hours after LPS. As for the experimental part:
FIG. 28 Clinical evaluation of administration of different amounts of the JNK inhibitor according to SEQ ID NO: 172 in albino rats after intravenous administration (endotoxins induced uveitis model). Form left to right: Vehicle, 0.015 mg/kg (i.v.) of SEQ ID NO: 172; 0.18 mg/kg (i.v.) of SEQ ID NO: 172; 1.8 mg/kg (i.v.) of SEQ ID NO: 172, 2 mg/kg (i.v.) of SEQ ID NO: 197 and 20 μg dexamethasone (administered directly by subconjunctival injection to the eye). Indicated is the clinical score (mean and the SEM).
The anti-inflammatory potency of the JNK inhibitor of SEQ ID NO: 172 was tested in albino rats following intravenous administration (EIU/LPS model). The aim of this study was to determine the effects of single intravenous injections of SEQ ID NO: 172 (0.015, 0.18, and 1.80 mg/kg) on the inflammatory response in an endotoxins-induced uveitis albino rat model and to compare these affects to those obtained with prior art JNK inhibitor of SEQ ID NO: 197 (2 mg/kg). As a further control served phosphate sodic dexamethasone.
Sixty (60) male Lewis rats were randomly divided into six (6) groups of ten (10) animals each. EIU was induced by footpad injection of lipopolysaccharide (LPS, 1 mg/kg). NaCl (0.9%), SEQ ID NO: 197 at 2 mg/kg and SEQ ID NO: 172 at three concentrations (1.80 mg/kg, 0.18 mg/kg and 0.015 mg/kg) were administered by intravenous injection. Phosphate sodic dexamethasone ([…]) was administered by sub-conjunctival injection in both eyes. 24 hours after LPS injection, inflammatory response was evaluated by clinical scoring.
The intensity of clinical ocular inflammation was scored on a scale from 0 to 4 for each eye: • Grade 0 no inflammation • Grade 1 slight iris and conjunctival vasodilation • Grade 2 moderate iris and conjunctival vasodilation with flare • Grade 3 intense iris and conjunctival vasodilation with flare • Grade 4 intense inflammatory reaction • (+1) fibrin formation and seclusion of pupils

Data set [6] concerns Hela cells. Kind of data set: Internalization of transporter constructs, 24 hours, fluorescence of cell extracts (FIG. 6). The format is cell-based. The method, then:
The transporter sequences analyzed correspond to SEQ ID NOs: 52-94 plus SEQ ID NOs: 45, 47, 46, 43 and 99 (FIG. 6a) and SEQ ID NOs: 100-147 (FIG. 6b). […] Hela cells were incubated 24 hours in 96 well plate with […] of the respective transporters. The cells were then washed twice with an acidic buffer (0.2M Glycin, 0.15M NaCl, pH 3.0) and twice with PBS. Cells were broken by the addition of RIPA lysis buffer. The relative amount of internalized peptide was then determined by reading the fluorescence intensity (Fusion Alpha plate reader; PerkinElmer) of each extract followed by background subtraction.
Hela cells were incubated 24 hours in 96 well plate with […] of the r3-L-TAT-derived transporters. The cells were then washed twice with an acidic buffer (0.2M Glycin, 0.15M NaCl, pH 3.0) and twice with PBS. Cells were broken by the addition of RIPA lysis buffer. The relative amount of internalized peptide was then determined by reading the fluorescence intensity (Fusion Alpha plate reader; PerkinElmer) of each extract followed by background subtraction

Square brackets hold non-standard residues; d marks the D form. Ends that are not written are not given here. Peptide text beside a SMILES is read from it.

Chain of hJNK3 (P53779 whole entry, looked up): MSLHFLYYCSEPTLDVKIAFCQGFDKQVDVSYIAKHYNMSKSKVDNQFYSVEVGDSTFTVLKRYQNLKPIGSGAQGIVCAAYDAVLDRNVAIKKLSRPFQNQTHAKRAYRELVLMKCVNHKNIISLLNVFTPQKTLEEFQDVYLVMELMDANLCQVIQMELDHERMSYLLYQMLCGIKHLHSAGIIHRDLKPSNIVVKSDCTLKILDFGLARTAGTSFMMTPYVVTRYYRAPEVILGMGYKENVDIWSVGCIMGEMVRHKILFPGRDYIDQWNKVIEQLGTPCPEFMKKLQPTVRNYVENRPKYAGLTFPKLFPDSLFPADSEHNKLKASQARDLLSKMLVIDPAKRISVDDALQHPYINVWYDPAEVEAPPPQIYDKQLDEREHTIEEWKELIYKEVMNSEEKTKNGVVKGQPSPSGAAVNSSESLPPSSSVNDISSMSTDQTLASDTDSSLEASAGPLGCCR
Chain of hJNK2 (P45984 whole entry, looked up): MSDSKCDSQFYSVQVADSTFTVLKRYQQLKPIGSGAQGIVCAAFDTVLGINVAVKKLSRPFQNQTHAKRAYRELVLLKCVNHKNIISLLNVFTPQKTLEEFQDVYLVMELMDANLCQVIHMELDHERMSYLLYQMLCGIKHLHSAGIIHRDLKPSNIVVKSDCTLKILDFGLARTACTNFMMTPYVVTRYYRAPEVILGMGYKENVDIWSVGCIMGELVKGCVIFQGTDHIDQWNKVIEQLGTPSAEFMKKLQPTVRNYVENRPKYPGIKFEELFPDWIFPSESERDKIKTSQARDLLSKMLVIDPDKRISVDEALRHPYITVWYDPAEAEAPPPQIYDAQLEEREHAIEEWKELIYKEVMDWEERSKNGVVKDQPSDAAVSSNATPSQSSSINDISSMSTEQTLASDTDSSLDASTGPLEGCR
Chain of hJNK1 (P45983 whole entry, looked up): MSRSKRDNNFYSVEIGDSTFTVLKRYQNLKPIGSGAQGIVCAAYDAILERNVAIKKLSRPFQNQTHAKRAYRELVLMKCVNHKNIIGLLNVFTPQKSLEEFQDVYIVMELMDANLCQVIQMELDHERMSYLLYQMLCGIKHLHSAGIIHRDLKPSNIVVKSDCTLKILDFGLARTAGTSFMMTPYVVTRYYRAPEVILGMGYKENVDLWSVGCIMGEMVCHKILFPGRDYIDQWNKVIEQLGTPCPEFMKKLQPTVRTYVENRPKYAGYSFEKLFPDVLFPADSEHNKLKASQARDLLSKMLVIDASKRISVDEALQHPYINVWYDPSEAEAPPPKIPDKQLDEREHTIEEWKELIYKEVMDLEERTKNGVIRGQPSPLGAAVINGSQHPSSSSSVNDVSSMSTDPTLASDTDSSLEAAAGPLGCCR

For “GRKKRRQRRRPPRPKRPTTLNLFPQVPRSQD [SEQ ID NO: 196, reference compound]”, the “totally degraded into amino acids residues within” value in data set [1] is at most 6 h.
Turning to `CC(C)C[C@H](NC(=O)[C@H](CC(N)=O)NC(=O)[C@H](CC(C)C)NC(=O)[C@@H](NC(=O)[C@@H](NC(=O)[C@@H]1CCCN1C(=O)[C@H](CCCNC(=N)N)NC(=O)[C@@H](CCCCN)NC(=O)[C@@H]1CCCN1C(=O)[C@@H](N)CCCNC(=N)N)[C@@H](C)O)[C@@H](C)O)C(=O)N[C@@H](Cc1ccccc1)C(N)=O` [SEQ ID NO: 3] (H-RP[dK]RPTTLNLF-NH2), the concentration for half-maximal inhibition (IC50) in data set [2] was determined as 312 nM; in data set [3], 1210 nM; in data set [4], 359 nM.
Regarding `C[C@@H]1C[C@H]2[C@@H]3CCC4=CC(=O)C=C[C@]4(C)[C@@]3(F)[C@@H](O)C[C@]2(C)[C@@]1(O)C(=O)CO` [dexamethasone, reference compound], in data set [5], the “clinical score of ocular inflammation, mean score (mean±SEM)” value came out at 0.8±0.2 and the “clinical score of ocular inflammation, median” value amounted to 0.5.
Turning to `CC(C)C[C@H](NC(=O)[C@H](CC(N)=O)NC(=O)[C@H](CC(C)C)NC(=O)[C@@H](NC(=O)[C@@H](NC(=O)[C@@H]1CCCN1C(=O)[C@H](CCCNC(=N)N)NC(=O)[C@H](CCCCN)NC(=O)[C@@H]1CCCN1C(=O)[C@H](N)CCCNC(=N)N)[C@@H](C)O)[C@@H](C)O)C(=O)N[C@@H](Cc1ccccc1)C(N)=O` [SEQ ID NO: 2] (H-[dR]PKRPTTLNLF-NH2), the concentration for half-maximal inhibition (IC50) came out at 424 nM in data set [3] and 103 nM in data set [4].
Take “rYKRrQRRr ([dR]YKR[dR]QRR[dR]) [SEQ ID NO: 142]”: the “transporter activity (Y in position 2)” value in data set [6] is given as “highest transporter activity”.
With `CC(C)C[C@H](NC(=O)[C@H](CC(N)=O)NC(=O)[C@H](CC(C)C)NC(=O)[C@@H](NC(=O)[C@@H](NC(=O)[C@@H]1CCCN1C(=O)[C@H](CCCNC(=N)N)NC(=O)[C@H](CCCCN)NC(=O)[C@@H]1CCCN1C(=O)[C@@H](N)CCCNC(=N)N)[C@@H](C)O)[C@@H](C)O)C(=O)N[C@H](Cc1ccccc1)C(N)=O` [SEQ ID NO: 7] (H-RPKRPTTLNL[dF]-NH2), the IC50 came out at 278 nM in data set [3] and 89 nM in data set [4].
As to `CC(C)C[C@H](NC(=O)[C@@H](NC(=O)[C@@H](NC(=O)[C@@H]1CCCN1C(=O)[C@H](CCCNC(=N)N)NC(=O)[C@H](CCCCN)NC(=O)[C@@H]1CCCN1C(=O)[C@@H](N)CCCNC(=N)N)[C@@H](C)O)[C@@H](C)O)C(=O)N[C@H](CCCNC(=N)N)C(=O)N[C@@H](CC(C)C)C(=O)N[C@@H](Cc1ccccc1)C(N)=O` [SEQ ID NO: 6] (H-RPKRPTTL[dR]LF-NH2), the IC50 in data set [2] worked out at 90.5 nM; in data set [3] it was 359 nM; in data set [4], 120 nM.
Turning to H-RPKRPTTLNLF-NH2 [SEQ ID NO: 193], the IC50 in data set [2] came to 39.5 nM; in data set [3] it was 184 nM; in data set [4], 67.7 nM.
Take `CC(C)C[C@H](NC(=O)[C@@H](NC(=O)[C@@H](NC(=O)[C@@H]1CCCN1C(=O)[C@H](CCCNC(=N)N)NC(=O)[C@H](CCCCN)NC(=O)[C@@H]1CCCN1C(=O)[C@@H](N)CCCNC(=N)N)[C@@H](C)O)[C@@H](C)O)C(=O)N[C@H](CC(N)=O)C(=O)N[C@@H](CC(C)C)C(=O)N[C@@H](Cc1ccccc1)C(N)=O` [SEQ ID NO: 5] (H-RPKRPTTL[dN]LF-NH2): the IC50 is 348 nM in data set [2] and 387 nM in data set [4].

The record behind these values is patent US10596223B2, “JNK inhibitor molecules for treatment of various diseases” (Xigen Inflammation Ltd., priority 2011, dated 2020).
